ChEMBL document CHEMBL1201862, “PubChem BioAssay data set” (2004)
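Cells were grown in 96-well plates and exposed to each compound for 48 hours at five concentrations; endpoints were interpolated linearly between bracketing concentrations, or set to the highest concentration if not reached. The concentration for 50% growth inhibition is given as GI50.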 Active and inactive are the calls of the source. No stated cut-off is given here; in the data, active = GI50 up to about 1.1 µM and inactive = higher.

Columns and labels:
Experiment in all cases: DTP human tumour cell line panel, 48 h
[1] = system: SK-MEL-28
[2] = system: OVCAR-4
[3] = system: SR
[4] = system: EKVX
[5] = system: OVCAR-3
[6] = system: UO-31
[7] = system: K562
[8] = system: HT-29
[9] = system: SN12C
[10] = system: OVCAR-8
[11] = system: ACHN
[12] = system: IGROV-1
[13] = system: HOP-62
[14] = system: HOP-92
[15] = system: SNB-19
[16] = system: SF-295
[17] = system: NCI-H522
[18] = system: HCT-15
[19] = system: MCF7

Measured: GI50

COc1ccc(-c2cc(O)c3cc(Cl)ccc3n2)cc1
inactive: [1] > 100 µM | [2] > 100 µM | [3] > 100 µM | [4] > 100 µM | [5] > 100 µM | [6] > 100 µM | [7] > 100 µM | [8] > 100 µM | [9] > 100 µM | [10] > 100 µM | [11] > 100 µM | [12] > 100 µM | [13] > 100 µM | [14] > 100 µM | [15] > 100 µM | [16] > 100 µM | [17] > 100 µM

NCCCCNCCCNC(=O)c1nc(-c2csc(CCN)n2)sc1Cl
> 100 µM: [18]
inactive: [1] > 100 µM | [2] > 100 µM | [3] > 100 µM | [4] > 100 µM | [5] > 100 µM | [6] > 100 µM | [7] 49.5 µM | [8] > 100 µM | [9] > 100 µM | [10] > 100 µM | [11] > 100 µM | [12] > 100 µM | [13] > 100 µM | [14] > 100 µM | [15] > 100 µM | [16] > 100 µM | [17] > 100 µM

CN(C)C(=O)N(CCCl)N=O
> 100 µM: [18]
inactive: [1] > 100 µM | [2] > 100 µM | [4] > 100 µM | [5] > 100 µM | [6] > 100 µM | [7] > 100 µM | [8] > 100 µM | [9] > 100 µM | [10] > 100 µM | [12] > 100 µM | [13] > 100 µM | [19] > 100 µM | [14] > 100 µM | [15] > 100 µM | [16] > 100 µM | [17] > 100 µM

CCCCc1nccc2c(C)c3[nH]c4ccccc4c3cc12
2.07 µM: [18]
inactive: [1] 4.26 µM | [2] 3.91 µM | [4] 4.48 µM | [5] 2.79 µM | [6] 1.86 µM | [7] 1.95 µM | [8] 2.62 µM | [9] 6.98 µM | [10] 2.84 µM | [12] 3.33 µM | [13] 3.68 µM | [19] 2.69 µM | [14] 3.74 µM | [15] 5 µM | [16] 2.68 µM | [17] 1.91 µM

O=C(CCc1nnc2s/c(=C\c3ccccc3Cl)c(=O)n12)Nc1cc(Cl)ccc1Cl
> 100 µM: [18]
inactive: [1] > 100 µM | [2] > 100 µM | [3] > 100 µM | [4] > 100 µM | [5] > 100 µM | [6] > 100 µM | [7] > 100 µM | [8] > 100 µM | [9] > 100 µM | [10] > 100 µM | [11] > 100 µM | [12] > 100 µM | [13] > 100 µM | [14] > 100 µM | [15] > 100 µM | [16] > 100 µM | [17] > 100 µM

O=[N+]([O-])c1nccn1COCCF
inactive: [1] > 100 µM | [2] > 100 µM | [3] > 100 µM | [4] > 100 µM | [5] > 100 µM | [6] > 100 µM | [7] > 100 µM | [8] > 100 µM | [9] > 100 µM | [10] > 100 µM | [11] > 100 µM | [12] > 100 µM | [13] > 100 µM | [14] > 100 µM | [15] > 100 µM | [16] > 100 µM | [17] > 100 µM
> 100 µM: [18]

[O-]/N=[N+](/[O-])C1CCCCC1=[N+]1CCOCC1 (stereo unspecified)
inactive: [1] > 100 µM | [2] > 100 µM | [3] > 100 µM | [4] > 100 µM | [5] > 100 µM | [6] > 100 µM | [7] > 100 µM | [8] > 100 µM | [9] > 100 µM | [10] > 100 µM | [11] > 100 µM | [13] > 100 µM | [14] > 100 µM | [15] > 100 µM | [16] > 100 µM | [17] > 100 µM

CC(C)OP(=O)(OC(C)C)/C(=N/Nc1ccc([N+](=O)[O-])cc1)NN
> 100 µM: [18]
inactive: [1] > 100 µM | [2] > 100 µM | [3] > 100 µM | [4] 61.9 µM | [5] > 100 µM | [6] 88.5 µM | [7] 65.9 µM | [9] > 100 µM | [10] > 100 µM | [11] 98.6 µM | [13] > 100 µM | [14] 65 µM | [15] > 100 µM | [17] 47.8 µM
